Source: patent US6080780A, “Use of nitroflavonoids for the treatment of anxiety” (University of Strathclyde, priority 1995, dated 2000)
Where “and” joins values, the source holds several entries; their conditions need not be identical. Equal values may be shown once.

Tests used:
mice [1] = experiment: Pentylenetetrazole (PTZ)-induced seizures; type: in vivo
Protocol: The effects of DNF on pentylenetetrazole (PTZ)--induced convulsions were evaluated according to Medina et al., (1990) with slight modifications. PTZ (200 mg/kg) was administered i.p. to mice 15 min after injection of drug or vehicle. The number of mice presenting clonic convulsions was determined.
Data are expressed as the percentage of mice presenting clonic or tonic-clonic seizures. ^3 number of animals per group.

Holeboard test in mice = type: in vivo, male Swiss mice; conditions: mouse, in vivo, ip; 10 mg/kg vs anxiolytic dose; read-out: dose decreasing holeboard parameters relative to anxiolytic dose
Protocol: (§1) Adult male Wistar rats weighing 250 g were used for biochemical experiments. Adult male Swiss male weighing 25-30 g were used for pharmacological assays except for inhibitory avoidance and tail flick tests were done in rats. Animals were housed in a controlled environment, with free access to food and water and maintained on a 12 h/12 h day/night cycle.
(§2) The test was performed according to Viola et al. (1994) and Wolfman et al. (1994). The number of head dips and the time spent head dipping were counted during 5 min.

mice [2] = experiment: Holeboard test in mice; type: in vivo, male Swiss mice; conditions: for number of head dips and time spent head-dipping: mice, i.p.
Protocol: as §1, §2

[3] = system: benzodiazepine (BDZ-R) receptor; experiment: 3H-Flunitrazepam binding to extensively washed bovine cerebral cortical membranes
Protocol: Non-specific nitration of the flavone nucleus yielded the two nitrated flavone (II) and (IIa). […] Briefly, ^3 H-FNZ binding was carried out as described by Levy de Stein, M., Medina, J. H., De Robertis E., Mol. Brain Res. 1985, 5, 9-15. In brief, for each assay, triplicate samples of the membranes, containing 0.2 to 0.4 mg protein were suspended in a final volume of 1 mL of 0.25 mM Tris-HCl buffer, pH 7.3. The incubation was carried out at 4° C. for 60 minutes with 0.6 nM ^3 -FNZ. To study the binding saturation, a range of 0.3 to 10 nM ^3 H-FNZ was used. Non-specific binding was determined in parallel incubations in the presence of 3 μM FNZ, and represented 5-15% of total. The assays were terminated by filtration under vacuum though Whatman GF/A glass-fiber filters, and three washes with 3 mL each of incubation medium. Filters were dried and counted after the addition of 5 mL of 2,5-diphenyloxazole/xylene as scintillation fluid. Bovine cerebral cortical membranes were treated substantially following the method of Medina, J. H., De Robertis, E. J., J. Neurochem. 1985, 44, 1340-1345.

[4] = biological target: central benzodiazepine receptor (Rattus norvegicus, UniProt P18508+P62813); experiment: [3H]-FNZ binding to crude synaptosomal membranes from rat CNS regions; parameters: washed crude synaptosomal membranes from rat cerebral cortex; from tissue; host or cells: Wistar rat cerebral cortex, cerebellum, hippocampus, striatum, spinal cord (crude synaptosomal membranes); species or system rat (Wistar); conditions: Ki, [3H]-FNZ binding, rat cerebellum
Protocol: as §1
Displacement curves were performed using [^3 ]-FNZ or [^3 H]-zolpidem ([^3 H]-ZOLP) as radioligands in washed crude synaptosomal membranes from rat cerebral cortex, cerebellum, hippocampus, striatum or spinal cord. Membrane preparations were carried out according to Medina et al. (1990). Briefly, brains were rapidly dissected out on ice and the different structures were homogenized in 10 volumes of 0.32 M sucrose and centrifuged at 900×g for 10 min. […]
For [^3 H]-FNZ (84 Ci/mmol, NEN) displacement curves, different concentrations of DNF (0.3 nM to 1 μM) were added to 0.3 mg membrane protein suspended in 1 ml of 25 mM Tris HCl buffer in presence of 0.6 nM of the radioligand. […] Nonspecific binding (<5%) was determined in parallel incubations with 10 μM FNZ (Hoffmann-La Roche). […] The assays were determined by filtration under vacuum through Whatman GF/A glass fiber filters, and two washes with 3 ml each of incubation medium. Filters were dried and counted after the addition of 5 ml 2,5-diphenyl-oxazole (PPO)-xylene as scintillation fluid.

mice [5] = experiment: Elevated plus-maze test in mice (Section 1, incl. Table 1); type: in vivo, male Swiss mice; conditions: mice, i.p.
Protocol: Performance of mice on the elevated plus-maze test was used to measure anxiolytic actions in rodents, following i.p. administration of vehicle or compound (II).
The animals used in the pharmacological test were male Swiss mice from breeding stock, weighing 28-35 g. They were placed n groups of ten with free access to water and food, and maintained on 12 h/12 h day/night cycle. In all the tests the mice were i.p. injected with VEH or a solution of the drug, 15 minutes before the assay.
The elevated plus-maze set-up consisted of a maze of two open arms, 25×5 cm, crossed by two closed arms of the same dimensions, with free access to all arms from the crossing point. The closed arms had walls 35 cm high all around. The maze was suspended 50 cm from the room floor. Mice were placed on the central part of the cross facing an open arm. The number of entries and the time spent going into open and closed arms were counted during 5 minutes. […] The total exploratory activity (number of entries in both arms) was also determined.

[6] = Sodium thiopental-induced sleeping time; type: in vivo, mice; conditions: mouse, in vivo; thiopental sleep, locomotor activity and holeboard together; read-out: doses with slight depressant action relative to anxiolytic doses
Protocol: (§3) Sodium thiopental (Abbott) (22 mg/kg) was i.p. injected 15 min after vehicle or DNF. The disappearance and reappearance of the righting reflex were considered indications of latency and duration of sleep, respectively (Anca et al., 1993).
(§4) Mice were injected with sodium thiopental (TP, 22 mg/kg i.p.) 15 min after vehicle (VEH) or 6,3'-dinitroflavone (DNF). The ceiling of sleeping time was 1800 s. Data are expressed in medians (interquartile range). ^3 number of animals per group.

mice [7] = experiment: Sodium thiopental-induced sleeping time; type: in vivo; conditions: for Sleeping Time / Latency: median (interquartile range); for Sleeping Time: VEH 190; for Latency: VEH 233
Protocol: as §3, §4

central benzodiazepine receptor, sequence (P62813 28-455): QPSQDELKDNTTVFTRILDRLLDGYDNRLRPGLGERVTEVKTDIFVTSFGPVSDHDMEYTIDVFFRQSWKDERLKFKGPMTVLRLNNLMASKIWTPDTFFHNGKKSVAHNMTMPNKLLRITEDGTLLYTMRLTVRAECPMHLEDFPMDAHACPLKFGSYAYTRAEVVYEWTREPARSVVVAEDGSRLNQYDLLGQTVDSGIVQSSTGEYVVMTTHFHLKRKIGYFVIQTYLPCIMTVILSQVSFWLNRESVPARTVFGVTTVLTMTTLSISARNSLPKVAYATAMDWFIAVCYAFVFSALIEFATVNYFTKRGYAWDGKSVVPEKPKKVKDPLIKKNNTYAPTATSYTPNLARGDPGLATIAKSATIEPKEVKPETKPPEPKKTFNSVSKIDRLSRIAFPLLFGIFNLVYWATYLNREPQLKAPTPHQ
central benzodiazepine receptor, sequence (P18508 39-466): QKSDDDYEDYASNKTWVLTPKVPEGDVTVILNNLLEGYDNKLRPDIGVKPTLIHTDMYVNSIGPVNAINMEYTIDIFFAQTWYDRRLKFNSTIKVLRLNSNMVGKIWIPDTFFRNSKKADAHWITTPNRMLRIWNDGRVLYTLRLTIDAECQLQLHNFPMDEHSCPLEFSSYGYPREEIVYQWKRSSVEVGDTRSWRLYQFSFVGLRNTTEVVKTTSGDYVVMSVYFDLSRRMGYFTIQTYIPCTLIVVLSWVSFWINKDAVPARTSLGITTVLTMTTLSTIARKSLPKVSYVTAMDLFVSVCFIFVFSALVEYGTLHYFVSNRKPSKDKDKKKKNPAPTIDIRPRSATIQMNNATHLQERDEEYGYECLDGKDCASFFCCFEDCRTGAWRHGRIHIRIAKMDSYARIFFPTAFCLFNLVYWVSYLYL
central benzodiazepine receptor, sequence (P63138 26-474 partner): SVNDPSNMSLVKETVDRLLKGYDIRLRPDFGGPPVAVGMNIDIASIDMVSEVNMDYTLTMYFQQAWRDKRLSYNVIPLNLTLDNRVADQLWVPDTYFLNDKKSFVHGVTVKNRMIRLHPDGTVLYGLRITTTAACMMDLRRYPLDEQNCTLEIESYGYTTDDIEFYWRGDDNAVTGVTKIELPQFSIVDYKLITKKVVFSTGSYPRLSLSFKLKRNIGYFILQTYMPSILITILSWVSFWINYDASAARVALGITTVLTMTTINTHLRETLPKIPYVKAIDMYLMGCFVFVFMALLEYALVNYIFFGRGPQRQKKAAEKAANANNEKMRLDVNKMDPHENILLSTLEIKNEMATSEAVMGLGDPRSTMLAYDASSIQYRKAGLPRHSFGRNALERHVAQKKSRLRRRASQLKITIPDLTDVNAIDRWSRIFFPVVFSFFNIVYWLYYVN

## O=c1cc(-c2cccc([N+](=O)[O-])c2)oc2ccc([N+](=O)[O-])cc12 [Compound (II), 6,3'-dinitroflavone]
Mice [1]; DNF 0.03 mg/kg, n=6
  % of convulsing mice: 100%
Mice [1]; DNF 0.1 mg/kg, n=12
  % of convulsing mice: 75%
Mice [1]; DNF 0.3 mg/kg, n=15
  % of convulsing mice: 80%
Mice [1]; DNF 1.0 mg/kg, n=13
  % of convulsing mice: 92.4%
Mice [1]; DNF 3.0 mg/kg, n=5
  % of convulsing mice: 100%
Mice [1]; DNF 6.0 mg/kg, n=7
  % of convulsing mice: 100%
Mice [1]; mice, 30 μg/kg-6 mg/kg, PTZ 200 mg/kg
  prevention of PTZ-induced seizures: did not prevent the seizures
Mice [1]; up to 10 mg/kg
  anticonvulsant effects: did not evidence anticonvulsant
Holeboard test in mice
  selectivity ratio: 300
Mice [2]; 10 mg/kg, p<0.01
  number of head dips and time spent head-dipping: decreased both parameters
Mice [2]; up to 3 mg/kg
  number of head dips and time spent head-dipping: did not change the number of head dips and the time spent head-dipping
Mice [2]; ratio to diazepam, higher dose
  dose to produce similar sedative effects in comparison to DZ: 10 fold
[3]; bovine membranes, compound (II) 20 nM (FIG. 1)
  Scatchard analysis of saturation curves (type of interaction): competitive interaction showing a decline in the apparent affinity without changes in the maximal number of sites (Bmax)
[3]; read-out: Ki, inhibition of 3H-FNZ binding, bovine cerebral cortical membranes, 0.6 nM 3H-FNZ, 4° C., 60 min, n=7
  Ki: 12 ± 1.7 nM
[4]
  Ki: 17 nM and 17.2 nM
Mice [5]; 3 and 30 μg/kg
  percentage of the time spent in the open arms: enhanced the percentage of the time spent in the open arms
Mice [5]; doses 0 to 30 μg/kg
  total arm entries: without affecting the total arm entries
Mice [5]; doses 0 to 30 μg/kg, 15 min before test
  percentage of entries in the open arms: increased the percentage of entries in the open arms
[6]
  selectivity ratio: 100 to 300
Mice [7]; 1 mg/kg
  latency or sleeping time (in words): did not change the latency or the sleeping time
Mice [7]; DNF 1 mg/kg + TP 22 mg/kg, n=7
  Sleeping Time: 207 (20/600) s
  Latency: 230 (164/300) s
Mice [7]; DNF 3 mg/kg + TP 22 mg/kg, n=12
  Latency: 237 (202/293) s
Mice [7]; DNF 3 mg/kg + TP 22 mg/kg, n=12, p<0.05
  Sleeping Time: 1277 (248/1800) s
Mice [7]; i.p., 3 mg/kg
  latency to sleep (in words): No changes were observed in latency to sleep
Mice [7]; i.p., 3 mg/kg, p<0.05
  sleeping time (in words): augmented the sleeping time
